Several values for one entry are separate records, joined by “and”; a condition that tells them apart may be missing. Equal values may be shown once.
How the values were obtained:
human CSNK1A1 = human CSNK1A1 (Homo sapiens (Human), UniProt P48729); experiment: CSNK1A1 Assay 2 (ADP-Glo, 1 μM ATP); assay type: biochemical; settings: median, Table 2, read-out: CSNK1A1 Assay 2 IC50 [mol/l] (median)
Outline: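 GST-tagged full-length human CSNK1A1 from insect cells, preincubated 15 min with compound, then reacted 30 min at 22° C with 1 μM ATP and 30 μM biotinylated peptide substrate in pH 7.5 HEPES buffer. ADP measured by ADP-Glo luminescence; normalised to no-inhibitor (0%) and no-enzyme (100%) controls.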

[1] = molecular target: wild-type Epidermal Growth Factor Receptor (EGFR) (Homo sapiens (Human), UniProt P00533); experiment: WT-EGFR kinase assay (TR-FRET, 2 mM ATP); assay type: biochemical; settings: median or individual measurements, Table 3, read-out: EGFR Wildtyp-2mM ATP IC50 [mol/l] (median)
Source text: Inhibitory activity of compounds of the present invention against wild-type Epidermal Growth Factor Receptor (EGFR) was quantified employing the TR-FRET based EGFR assay as described in the following paragraphs.
Recombinant fusion protein of N-terminal Glutathion-S-Transferase (GST) and a fragment of human EGFR (amino acids R669 to A1210), expressed in Sf9 insect cells and purified via affinity chromatography using Glutathion Sepharose as described above, was used as kinase. As substrate for the kinase reaction the biotinylated peptide biotin-Ahx-AEEEEYFELVAKKK (C-terminus in amide form) was used which can be purchased e.g. form the company Biosynthan GmbH (Berlin-Buch, Germany).
For the assay 50 nl of a 100 fold concentrated solution of the test compound in DMSO was pipetted into either a black low volume 384 well microtiter plate or a black 1536 well microtiter plate (both Greiner Bio-One, Frickenhausen, Germany), 2 μL of a solution of EGFR in aqueous assay buffer [50 mM Hepes pH 7.0, 10 mM MgCl2, 1 mM dithiothreitol, 0.5 mM EGTA, 0.3 mM activated sodium ortho-vanadate, 0.005% (w/v) bovine serum albumin, 0.005% (v/v) Tween-20] were added and the mixture was incubated for 15 min at 22° C. to allow pre-binding of the test compounds to the enzyme before the start of the kinase reaction. Then the kinase reaction was started by the addition of 3 μL of a solution of adenosine-tri-phosphate (ATP, 3.33 mM=>final conc. in the 5 μL assay volume is 2 mM) and substrate (1.67 μM=>final conc. in the 5 μL assay volume is 1 μM) in assay buffer and the resulting mixture was incubated for a reaction time of 30 min at 22° C. The concentration of EGFR was adjusted depending of the activity of the enzyme lot and was chosen appropriate to have the assay in the linear range, typical concentration was 7.6 pg/μL. The reaction was stopped by the addition of 3 μL of a solution of HTRF detection reagents (83.3 nM streptavidine-XL665 [Cisbio Bioassays, Codolet, France] and 1.67 nM PT66-Tb-Cryptate, a terbium-cryptate labelled anti-phospho-tyrosine antibody from Cisbio Bioassays [instead of the PT66-Tb-cryptate PT66-Eu-Chelate from Perkin Elmer can also be used]) in an aqueous EDTA-solution (133.3 mM EDTA, 0.2% (w/v) bovine serum albumin in 50 mM HEPES pH 7.5).
The resulting mixture was incubated 1 h at 22° C. to allow the binding of the biotinylated phosphorylated peptide to the streptavidine-XL665 and the PT66-Tb-Cryptate. Subsequently the amount of phosphorylated substrate was evaluated by measurement of the resonance energy transfer from the PT66-Tb-Cryptate to the streptavidine-XL665. Therefore, the fluorescence emissions at 620 nm and 665 nm after excitation at 337 nm were measured in a HTRF reader, e.g. a Pherastar (BMG Labtechnologies, Offenburg, Germany) or a Viewlux (Perkin-Elmer). The ratio of the emissions at 665 nm and at […] was taken as the measure for the amount of phosphorylated substrate. The data were normalised (enzyme reaction without inhibitor=0% inhibition, all other assay components but no enzyme=100% inhibition).

Chain of wild-type Epidermal Growth Factor Receptor (EGFR) (P00533 669-1210): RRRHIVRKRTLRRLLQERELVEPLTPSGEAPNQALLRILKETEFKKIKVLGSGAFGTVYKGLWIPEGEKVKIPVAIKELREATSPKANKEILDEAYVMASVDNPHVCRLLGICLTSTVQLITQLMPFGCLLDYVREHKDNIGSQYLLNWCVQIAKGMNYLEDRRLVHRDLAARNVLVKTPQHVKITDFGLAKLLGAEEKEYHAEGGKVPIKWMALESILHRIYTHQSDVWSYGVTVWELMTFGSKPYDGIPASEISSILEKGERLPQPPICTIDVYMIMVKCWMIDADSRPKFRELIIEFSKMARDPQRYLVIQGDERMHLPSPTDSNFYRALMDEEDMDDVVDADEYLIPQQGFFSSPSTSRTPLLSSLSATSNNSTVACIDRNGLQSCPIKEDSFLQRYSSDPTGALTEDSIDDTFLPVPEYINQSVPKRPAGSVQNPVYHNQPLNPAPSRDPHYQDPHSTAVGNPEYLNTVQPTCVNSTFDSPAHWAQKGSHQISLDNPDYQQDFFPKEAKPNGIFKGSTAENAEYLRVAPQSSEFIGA
Chain of human CSNK1A1 (P48729 whole entry): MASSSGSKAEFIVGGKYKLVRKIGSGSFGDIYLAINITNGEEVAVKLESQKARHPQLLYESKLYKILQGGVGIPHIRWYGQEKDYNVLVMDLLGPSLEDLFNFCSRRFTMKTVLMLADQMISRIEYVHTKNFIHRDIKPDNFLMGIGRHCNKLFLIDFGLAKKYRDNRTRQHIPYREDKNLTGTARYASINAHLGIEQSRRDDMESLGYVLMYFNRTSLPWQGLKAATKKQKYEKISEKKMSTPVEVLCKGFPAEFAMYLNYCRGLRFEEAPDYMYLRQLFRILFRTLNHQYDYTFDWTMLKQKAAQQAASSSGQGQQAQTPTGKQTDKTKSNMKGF

Row | Structure (SMILES) | IC50 (human CSNK1A1) | IC50 [1]
1 | Cn1cc(CC(F)(F)F)c2[nH]c(-c3ccnc(NC(=O)C(CC(F)F)c4ccc(F)cc4)c3)c(Nc3ccccc3)c2c1=O (single isomer, unassigned) [Example 37, N-{4-[3-anilino-5-methyl-4-oxo-7-(2,2,2-trifluoroethyl)-4,5-dihydro-1H-pyrrolo[3,2-c]pyridin-2-yl]pyridin-2-yl}-4,4-difluoro-2-(4-fluorophenyl)butanamide] | 0.012 µM | 0.12 µM
2 | Cc1cn(C)c(=O)c2c(Nc3ccccc3)c(-c3ccnc(NC(=O)C(C)c4ccc(F)cc4)c3)[nH]c12 (single isomer, unassigned) [Example 40, N-[4-(3-anilino-5,7-dimethyl-4-oxo-4,5-dihydro-1H-pyrrolo[3,2-c]pyridin-2-yl)pyridin-2-yl]-2-(4-fluorophenyl)propanamide] | 0.015 µM | 17 µM
3 | Cc1cn(C)c(=O)c2c(Nc3ccccc3)c(-c3ccnc(NC(=O)C(C)c4ccc(F)cc4)c3)[nH]c12 (single isomer, unassigned) [Example 41, N-[4-(3-anilino-5,7-dimethyl-4-oxo-4,5-dihydro-1H-pyrrolo[3,2-c]pyridin-2-yl)pyridin-2-yl]-2-(4-fluorophenyl)propanamide] | 0.1 µM | 9.1 µM
4 | CN1CC(CC(F)F)c2[nH]c(-c3ccnc(NC(=O)Cc4ccc(F)cc4)c3)c(Nc3ccccc3)c2C1=O (single isomer, unassigned) [Example 43, N-{4-[3-anilino-7-(2,2-difluoroethyl)-5-methyl-4-oxo-4,5,6,7-tetrahydro-1H-pyrrolo[3,2-c]pyridin-2-yl]pyridin-2-yl}-2-(4-fluorophenyl)acetamide] | 0.0028 µM | 0.41 µM
5 | CN1CC(CC(F)F)c2[nH]c(-c3ccnc(NC(=O)Cc4ccc(F)cc4)c3)c(Nc3ccccc3)c2C1=O (single isomer, unassigned) [Example 44, N-{4-[3-anilino-7-(2,2-difluoroethyl)-5-methyl-4-oxo-4,5,6,7-tetrahydro-1H-pyrrolo[3,2-c]pyridin-2-yl]pyridin-2-yl}-2-(4-fluorophenyl)acetamide] | 0.0033 µM | 0.49 µM
6 | CN1CC(CC(F)(F)F)c2[nH]c(-c3ccnc(NC(=O)Cc4ccc(F)cc4)c3)c(Nc3cscn3)c2C1=O (single isomer, unassigned) [Example 47, 2-(4-fluorophenyl)-N-{4-[(7R or S)-5-methyl-4-oxo-3-(1,3-thiazol-4-ylamino)-7-(2,2,2-trifluoroethyl)-4,5,6,7-tetrahydro-1H-pyrrolo[3,2-c]pyridin-2-yl]pyridin-2-yl}acetamide] | 0.0034 µM | > 20 µM
7 | CN1CC(CC(F)(F)F)c2[nH]c(-c3ccnc(NC(=O)Cc4ccc(F)cc4)c3)c(Nc3cscn3)c2C1=O (single isomer, unassigned) [Example 48, 2-(4-fluorophenyl)-N-{4-[(7R or S)-5-methyl-4-oxo-3-(1,3-thiazol-4-ylamino)-7-(2,2,2-trifluoroethyl)-4,5,6,7-tetrahydro-1H-pyrrolo[3,2-c]pyridin-2-yl]pyridin-2-yl}acetamide] | 0.0075 µM | > 20 µM
8 | CN1CC(CC2CC2)c2[nH]c(-c3ccnc(NC(=O)Cc4ccc(F)cc4)c3)c(Nc3cscn3)c2C1=O (single isomer, unassigned) [Example 50, N-{4-[(7R or S)-7-(cyclopropylmethyl)-5-methyl-4-oxo-3-(1,3-thiazol-4-ylamino)-4,5,6,7-tetrahydro-1H-pyrrolo[3,2-c]pyridin-2-yl]pyridin-2-yl}-2-(4-fluorophenyl)acetamide] | 0.0051 µM | > 20 µM
9 | CN1CC(CC2CC2)c2[nH]c(-c3ccnc(NC(=O)Cc4ccc(F)cc4)c3)c(Nc3cscn3)c2C1=O (single isomer, unassigned) [Example 51, N-{4-[(7R or S)-7-(cyclopropylmethyl)-5-methyl-4-oxo-3-(1,3-thiazol-4-ylamino)-4,5,6,7-tetrahydro-1H-pyrrolo[3,2-c]pyridin-2-yl]pyridin-2-yl}-2-(4-fluorophenyl)acetamide] | 0.02 µM | 17.2 µM and > 20 µM
10 | CN1CC(CC(F)(F)F)c2[nH]c(-c3ccnc(NC(=O)C(CC(F)F)c4ccc(F)cc4)c3)c(Nc3cscn3)c2C1=O (single isomer, unassigned) [Example 53, (2R or S)-4,4-difluoro-2-(4-fluorophenyl)-N-{4-[(7R or S)-5-methyl-4-oxo-3-[(1,3-thiazol-4-yl)amino]-7-(2,2,2-trifluoroethyl)-4,5,6,7-tetrahydro-1H-pyrrolo[3,2-c]pyridin-2-yl]pyridin-2-yl}butanamide] | 0.021 µM | > 20 µM
11 | CN1CC(CC(F)(F)F)c2[nH]c(-c3ccnc(NC(=O)C(CC(F)F)c4ccc(F)cc4)c3)c(Nc3cscn3)c2C1=O (single isomer, unassigned) [Example 54, (2R or S)-4,4-difluoro-2-(4-fluorophenyl)-N-{4-[(7R or S)-5-methyl-4-oxo-3-[(1,3-thiazol-4-yl)amino]-7-(2,2,2-trifluoroethyl)-4,5,6,7-tetrahydro-1H-pyrrolo[3,2-c]pyridin-2-yl]pyridin-2-yl}butanamide] | 0.003 µM | > 20 µM
12 | CN1CC(CC(F)(F)F)c2[nH]c(-c3ccnc(NC(=O)C(CC(F)F)c4ccc(F)cc4)c3)c(Nc3cscn3)c2C1=O (single isomer, unassigned) [Example 55, (2R or S)-4,4-difluoro-2-(4-fluorophenyl)-N-{4-[(7R or S)-5-methyl-4-oxo-3-[(1,3-thiazol-4-yl)amino]-7-(2,2,2-trifluoroethyl)-4,5,6,7-tetrahydro-1H-pyrrolo[3,2-c]pyridin-2-yl]pyridin-2-yl}butanamide] | 0.059 µM | 10.8 µM and 9.47 µM
13 | CN1CC(CC(F)(F)F)c2[nH]c(-c3ccnc(NC(=O)C(CC(F)F)c4ccc(F)cc4)c3)c(Nc3cscn3)c2C1=O (single isomer, unassigned) [Example 56, (2R or S)-4,4-difluoro-2-(4-fluorophenyl)-N-{4-[(7R or S)-5-methyl-4-oxo-3-[(1,3-thiazol-4-yl)amino]-7-(2,2,2-trifluoroethyl)-4,5,6,7-tetrahydro-1H-pyrrolo[3,2-c]pyridin-2-yl]pyridin-2-yl}butanamide] | 0.0077 µM | > 20 µM
14 | CC1CN(C)C(=O)c2c1[nH]c(-c1ccnc(NC(=O)Cc3ccc(F)cc3)c1)c2Nc1ccccc1 (single isomer, unassigned; (+)) [Example 8, (+)-N-{4-[3-anilino-5,7-dimethyl-4-oxo-4,5,6,7-tetrahydro-1H-pyrrolo[3,2-c]pyridin-2-yl]pyridin-2-yl}-2-(4-fluorophenyl)acetamide] | 0.012 µM | 3 µM
15 | O=C1N[C@@H]2CCC[C@@H]2c2[nH]c(-c3ccnc(NC(=O)C(CC(F)F)c4ccc(F)cc4)c3)c(Nc3ccccc3)c21 (single isomer, unassigned; (+)) [Example 22, (+)-(2R or S)—N-{4-[cis-3-anilino-4-oxo-1,4,5,5a,6,7,8,8a-octahydrocyclopenta[b]pyrrolo[2,3-d]pyridin-2-yl]pyridin-2-yl}-4,4-difluoro-2-(4-fluorophenyl)butanamide] | 0.0054 µM | > 20 µM
16 | O=C1N[C@@H]2CCC[C@@H]2c2[nH]c(-c3ccnc(NC(=O)C(CC(F)F)c4ccc(F)cc4)c3)c(Nc3ccccc3)c21 (single isomer, unassigned; (+)) [Example 25, (+)-(2R or S)—N-{4-[cis-3-anilino-4-oxo-1,4,5,5a,6,7,8,8a-octahydrocyclopenta[b]pyrrolo[2,3-d]pyridin-2-yl]pyridin-2-yl}-4,4-difluoro-2-(4-fluorophenyl)butanamide] | 0.0023 µM | > 20 µM
